Measurements reported in patent US20260256792A1, “TREATMENT OF CHRONIC SPONTANEOUS URTICARIA BY ADMINISTERING (R)-2-[3-[4-AMINO-3-(2-FLUORO-4-PHENOXY-PHENYL)PYRAZOLO[3,4-D]PYRIMIDIN-1-YL]PIPERIDINE-1-CARBONYL]-4-METHYL-4-[4-(OXETAN-3-YL)PIPERAZIN-1-YL]PENT-2-ENENITRILE” (priority 2023, published 2026).

Tests used:
platelet aggregation = conditions: healthy volunteers or patients with ITP; cited from earlier work
[1] = humans, oral administration; cited from earlier work
sMRGPRX2 = experiment: Phase 2 CSU study: serum sMRGPRX2 ELISA; format: in vivo, human; conditions: for SMRGPRX2 (ng/mL) Median Percent Change from Baseline: Baseline to Week 12
Description: Blood samples were also collected through Week 12 to evaluate the change in baseline in various biomarkers, including sMRGPRX2, IgG anti-TPO, IgG anti-FCεRI, IgG anti-IgE, and IL-31.
Collection of biological samples for other biomarker research was also part of this study. The following samples for biomarker research were required and were to be collected from all participants in this study: • Serum and plasma samples for soluble biomarkers and cellular tests. Analytes included IgG anti-IgE, IgG anti-FcεRI, IgG anti-TPO, IgE anti-TPO, IL-31, and sMRGPRX2. • Blood samples for immune cell phenotyping, including measurement of eosinophil levels • Blood samples for BTK occupancy in peripheral blood mononuclear cells (PBMCs) at selected sites
For each patient, serum samples were to be collected on each of four visits (Visits 2, 4, 6, and end of study/follow up).
Serum analyte testing was to be performed using the following commercial assays: • sMRGPRX2 ELISA (Cat. No. #MBS933336; MyBioSource) • IL-31 HTRF assay (Cat. No. #62HIL31PEG; Cisbio/PerkinElmer) • IgG anti-TPO ELISA (Cat. No. #ORG503; Orgentec Diagnostica GmbH)
If dilutions were to be prepared, the same dilutions were to be prepared twice from each sample. These were to be measured on different plates. Each plate was to include a standard curve. Samples were to be measured twice for all biomarkers except for sMRGPRX2. Mean measurement values were to be calculated, and the concentration of the biomarker was to be calculated using GraphPad Prism 9 software (4-PL model).
For the sMRGPRX2 ELISA, measurements were performed according to the manufacturer's instructions. Single measurements were obtained for all samples.
Assay data ranges are described below. • sMRGPRX2: 0.1 ng/mL-10 ng/mL • IgG anti-FCεRI: 0-10000 arbitrary units (AU) • IgG anti-TPO: 0-3000 international units (IU) • IgE anti-TPO: 0-500 AU • IgG anti-IgE: 0-100000 AU • IL-31: 0.1 ng/mL-20 ng/mL

CC(C)(C=C(C#N)C(=O)N1CCC[C@@H](n2nc(-c3ccc(Oc4ccccc4)cc3F)c3c(N)ncnc32)C1)N1CCN(C2COC2)CC1 [rilzabrutinib, (R)-2-[3-[4-amino-3-(2-fluoro-4-phenoxy-phenyl)pyrazolo[3,4-d]pyrimidin-1-yl]piperidine-1-carbonyl]-4-methyl-4-[4-(oxetan-3-yl)piperazin-1-yl]pent-2-enenitrile]
effect on platelet aggregation (platelet aggregation): does not alter | absorption [1]: rapidly absorbed | half-life [1]: 3 to 4 h | reduction from baseline median sMRGPRX2 levels (sMRGPRX2; 400 mg TID, Week 12): 22.8% | SMRGPRX2 (ng/mL) Median Percent Change from Baseline (sMRGPRX2; 400 mg BID): −29.3% | SMRGPRX2 (ng/mL) Median Percent Change from Baseline (sMRGPRX2; 400 mg QPM): −31.1% | SMRGPRX2 (ng/mL) Median Percent Change from Baseline (sMRGPRX2; 400 mg TID): −22.8%
